Reference: patent publication US4348393A, “N-Aryl oxazolidinones, oxazolidinethiones, pyrrolidinones, pyrrolidines and thiazolidinones” (Delalande S.A., priority 1978, dated 1982)
Like-named read-outs stand apart in the source and are kept apart here.

Experiments:
[1] = system: generalized trembling caused by dl-5-hydroxytryptophane; test: Test A: potentiation in mice of generalized trembling caused by dl-5-hydroxytryptophane; assay type: in vivo; conditions: Mus musculus, po, read-out: Test A ED 50
Experimental: Test A: Potentiation in mice of generalized trembling caused by an interperitoneal injection (200 mg/kg) of dl-5-hydroxytryptophane, following the protocol described by C. GOURET and G. RAYNAUD in J. Pharmacol. (Paris), (1974), 5, 231.

Toxicity LD50 mouse = conditions: in vivo, po, read-out: Toxicity LD 50
[2] = system: ptosis observed one hour after reserpine; test: Test B: antagonism of reserpine-induced ptosis in mice; assay type: in vivo; conditions: Mus musculus, 1 h, po, antagonism of ptosis one hour after reserpine 2 mg/kg intravenous, read-out: Test B ED 50
Experimental: Test B: Antagonism with respect to the ptosis observed one hour after an intravenous injection (2 mg/kg) of reserpine given to mice, following the protocol described by C.

[3] = mice, potentiation of trembling by dl-5-hydroxytryptophane 200 mg/kg interperitoneal

SMILES | ED50 [1, 3] [mg/kg] | LD50 (Toxicity LD50 mouse) [mg/kg] | ED50 [2] [mg/kg] | ED50 [1] [mg/kg]
COCC1CN(c2ccc(OCCC#N)cc2)C(=O)O1 (centres unmarked) [compound 52] | 1.2 | > 2000 | – | –
OCC1CCN(c2ccc(OCc3ccccc3)cc2)C1 (centres unmarked) [compound 220, N-parabenzyloxyphenyl hydroxymethyl-3 pyrrolidine] | 50 | > 1000 | 50 | –
COCC1CN(c2ccc(OCc3cccnc3)cc2)C(=S)O1 (centres unmarked) [compound 213] | 3 | 1000 | 2 | –
CCCOCC1CN(c2ccc(OCc3cccc([N+](=O)[O-])c3)cc2)C(=S)O1 (centres unmarked) [compound 210] | 26 | > 1000 | 7.4 | –
COCC1CN(c2ccc(OCC3CCC3)cc2)C(=O)O1 (centres unmarked) [compound 183] | 1.9 | > 1000 | 2.4 | –
O=C(COc1ccccc1)OCC1CN(c2ccc(OCc3cccc([N+](=O)[O-])c3)cc2)C(=O)O1 (centres unmarked) [compound 178] | 33 | > 1000 | 28 | –
COCC1CN(c2ccc(OCc3cc(C#N)cc([N+](=O)[O-])c3)cc2)C(=S)O1 (centres unmarked) [compound 218] | 7.2 | > 1000 | 13.5 | –
CCNCC1CN(c2ccc(OCc3cccc([N+](=O)[O-])c3)cc2)C(=O)O1 (centres unmarked) [compound 203] | 5.2 | 1000 | 1.4 | –
COCC1CN(c2ccc(OCC3(C)CCCC3)cc2)C(=O)O1 (centres unmarked) [compound 186] | 3 | > 1000 | 3 | –
COCC1CN(c2ccc(OCc3cc(C#N)cc([N+](=O)[O-])c3)cc2)C(=O)O1 (centres unmarked) [compound 161] | 1.1 | > 2000 | 0.36 | –
COCC1CN(c2ccc(OCCN3CCOCC3)cc2)C(=O)O1 (centres unmarked) [compound 181] | 4 | > 1000 | 9 | –
O=C1CC(CO)CN1c1ccc(OCc2cccc([N+](=O)[O-])c2)cc1 (centres unmarked) [compound 99] | 50 | > 2000 | 30 | –
CC(=O)OCC1CN(c2ccc(OCCC(C)C)cc2)C(=O)O1 (centres unmarked) [compound 123] | 2 | > 2000 | 1.4 | –
NCC1CN(c2ccc(OCc3cc(Cl)cc([N+](=O)[O-])c3)cc2)C(=O)O1 (centres unmarked) [compound 207] | 9.1 | > 1000 | 7.6 | –
CCC(=O)OCC1CN(c2ccc(OCc3cccc([N+](=O)[O-])c3)cc2)C(=S)O1 (centres unmarked) [compound 208] | 10 | > 1000 | 4.2 | –
COCC1CN(c2ccc(OCc3cccc([N+](=O)[O-])c3)cc2)C(=O)S1 (centres unmarked) [compound 219, para (metanitro) benzyloxyphenyl-3 methoxymethyl-5 thiazolidinone-2] | 7 | > 1000 | 13.5 | –
COCC1CN(c2ccc(N(C)C)cc2)C(=O)O1 (centres unmarked) [compound 180] | 7.4 | 1000 | 7.8 | –
CNCC1CN(c2ccc(OCC3CCCC3)cc2)C(=O)O1 (centres unmarked) [compound 77] | 2.5 | > 2000 | 6.2 | –
CCC(=O)OCC1CN(c2ccc(OCc3ccccc3)cc2)C(=O)O1 (centres unmarked) [compound 24] | 9 | > 2000 | 12.5 | –
CC(=O)OCC1CN(c2ccc(OCC3CCCC3)cc2)C(=O)O1 (centres unmarked) [compound 13] | 3 | > 2000 | 2 | –
CC(C)CCOc1ccc(N2CC(CO)OC2=S)cc1 (centres unmarked) [compound 91] | – | > 2000 | 5.5 | 4.5

SMILES | ED50 [1, 3] [mg/kg] | LD50 (Toxicity LD50 mouse) [mg/kg] | ED50 [2] [mg/kg] | ED50 [1] [mg/kg]
COCC1CN(c2ccc(CCc3ccccc3)cc2)C(=O)O1 (centres unmarked) [compound 192] | 5.8 | > 1000 | 6 | –
COCC1CN(c2ccc(OCc3ccc(F)c([N+](=O)[O-])c3)cc2)C(=O)O1 (centres unmarked) [compound 169] | 3 | > 1000 | 4.1 | –
COCC1CN(c2ccc(OCCCCCl)cc2)C(=O)O1 (centres unmarked) [compound 234] | 0.6 | > 1000 | 4 | –
COCC1CN(c2ccc(OCc3cccc([N+](=O)[O-])c3)cc2)C(=O)O1 (centres unmarked) [compound 61, para (meta-nitrobenzyloxy) phenyl-3 methoxymethyl-5 oxazolidinone-2] | 0.08 | 1500 | 0.1 | –
COCC1CN(c2ccc(OCCC(C)C)cc2)C(=S)O1 (centres unmarked) [compound 214] | 0.84 | 1000 | 1.8 | –
COCC1CN(c2ccc(OCC3CCCC3)cc2)C(=O)O1 (centres unmarked) [compound 49] | 0.5 | 2000 | 0.4 | –
CN(C)CC1CN(c2ccc(OCc3cccc(C#N)c3)cc2)C(=O)O1 (centres unmarked) [compound 206] | 6 | > 1000 | 4.3 | –
N#CCCCCOc1ccc(N2CC(CO)OC2=S)cc1 (centres unmarked) [compound 215] | 6.2 | > 1000 | 10 | –
COC[C@H]1CN(c2ccc(OCc3cccc(C#N)c3)cc2)C(=O)O1 [compound 199] | 0.31 | > 1000 | – | –
COCC1CN(c2ccc(OCc3cccc(Br)c3)cc2)C(=O)O1 (centres unmarked) [compound 197] | 2.2 | > 1000 | 6.7 | –
COCC1CN(c2ccc(/C=C/c3ccccc3)cc2)C(=O)O1 (centres unmarked) [compound 187] | 2.7 | > 1000 | 1.3 | –
COCC1CN(c2ccc(OCC3CCCC3)cc2)C(=S)O1 (centres unmarked) [compound 211] | 2 | 1000 | 1.2 | –
COCC1CN(c2ccc(/C=C/c3cccc(Cl)c3)cc2)C(=O)O1 (centres unmarked) [compound 190] | 1 | > 1000 | 0.23 | –
O=C1OC(CN2CCOCC2)CN1c1ccc(OCc2cccc([N+](=O)[O-])c2)cc1 (centres unmarked) [compound 202] | 10 | > 1000 | 10 | –
COCC1CN(c2ccc(OCc3cccc(I)c3)cc2)C(=O)O1 (centres unmarked) [compound 198] | 40 | > 1000 | 34 | –
COCC1CN(c2ccc(OCc3ccc([N+](=O)[O-])c(Cl)c3)cc2)C(=O)O1 (centres unmarked) [compound 168] | 25 | > 1000 | 16 | –
COCC1CN(c2ccc(C#Cc3ccccc3)cc2)C(=O)O1 (centres unmarked) [compound 189] | 2.6 | > 1000 | 0.9 | –
COCC1CN(c2ccc(/C=C/c3cccc([N+](=O)[O-])c3)cc2)C(=O)O1 (centres unmarked) [compound 191] | 0.4 | 1000 | 0.38 | –
N#CCCCOc1ccc(N2CC(CO)OC2=S)cc1 (centres unmarked) [compound 212] | 4.3 | 1000 | 12 | –
CC=CCOc1ccc(N2CC(COC)OC2=O)cc1 (centres unmarked) [compound 179] | – | > 1000 | 7 | 4.5
COCC1CN(c2ccc(OCC=C(C)C)cc2)C(=O)O1 (centres unmarked) [compound 185] | 12 | > 1000 | 7 | –

SMILES | ED50 [1, 3] [mg/kg] | LD50 (Toxicity LD50 mouse) [mg/kg] | ED50 [2] [mg/kg] | ED50 [1] [mg/kg]
CC(C)NCC1CN(c2ccc(OCc3cccc([N+](=O)[O-])c3)cc2)C(=O)O1 (centres unmarked) [compound 201] | 7.4 | > 1000 | 6.8 | –
CC(=O)OCC1CN(c2ccc(OCCC#N)cc2)C(=O)O1 (centres unmarked) [compound 3] | 3.1 | > 2000 | 2.7 | –
COCC1CN(c2ccc(OCC3=CCCC3)cc2)C(=O)O1 (centres unmarked) [compound 184] | 1.2 | > 1000 | 0.72 | –
COCC1CN(c2ccc(OCC3CCCOC3)cc2)C(=O)O1 (centres unmarked) [compound 182] | 3.7 | > 1000 | 5.8 | –
COCC1CN(c2ccc(OCC3CCCCC3)cc2)C(=S)O1 (centres unmarked) [compound 114] | 3.7 | > 2000 | 2 | –
NCC1CN(c2ccc(OCc3ccc(F)cc3)cc2)C(=O)O1 (centres unmarked) [compound 176] | 4 | – | 4 | –
OCC1CN(c2ccc(OCc3cccc(Cl)c3)cc2)C(=S)O1 (centres unmarked) [compound 93] | 9 | – | 6 | –
CCOCC1CN(c2ccc(OCCC#N)cc2)C(=O)O1 (centres unmarked) [compound 147] | 1.5 | – | 2.6 | –
COCC1CN(c2ccc(OCCCCC#N)cc2)C(=O)O1 (centres unmarked) [compound 112] | 0.1 | – | 0.15 | –
COCC1CN(c2ccc(/C=C/c3cccc(C#N)c3)cc2)C(=O)O1 (centres unmarked) [compound 196] | – | > 1000 | 0.55 | –
CCC(=O)OCC1CN(c2ccc(OCCC#N)cc2)C(=O)O1 (centres unmarked) [compound 4] | 2.3 | – | 3.4 | –
CC(C)CCOc1ccc(N2CC(COC(=O)C(C)(C)C)OC2=O)cc1 (centres unmarked) [compound 125] | 5 | – | 3.5 | –
CC(C)C(=O)OCC1CN(c2ccc(OCc3cccc(Cl)c3)cc2)C(=O)O1 (centres unmarked) [compound 32] | 4.7 | – | 3.6 | –
COCC1CN(c2ccc(OCc3cccc(C#N)c3)cc2)C(=S)O1 (centres unmarked) [compound 116] | 1.6 | – | 0.95 | –
COC[C@@H]1CN(c2ccc(OCc3cccc(C#N)c3)cc2)C(=O)O1 [compound 200] | 1.7 | > 1000 | – | –
CC(C)CCOCC1CN(c2ccc(OCc3cccc([N+](=O)[O-])c3)cc2)C(=O)O1 (centres unmarked) [compound 158] | 6 | – | 6 | –
CC(=O)OCC1CN(c2ccc(OCc3cccc([N+](=O)[O-])c3)cc2)C(=S)O1 (centres unmarked) [compound 117] | 1.2 | – | 1.5 | –
C=CCOCC1CN(c2ccc(OCc3cccc([N+](=O)[O-])c3)cc2)C(=O)O1 (centres unmarked) [compound 71] | 1 | – | 0.8 | –
N#CCCOc1ccc(N2CC(COC(=O)c3ccccc3)OC2=O)cc1 (centres unmarked) [compound 10] | 2.4 | – | 5.8 | –
